Results on three molecules are retold here after patent publication US12685735B2 (Foghorn Therapeutics Inc., priority 2020, dated 2026).

For one test, the target named is BRG-1 (Homo sapiens, UniProt P51532). Put plainly: ATPase catalytic activity assay of BRG-1 (ADP-Glo). It is filed as biochemical. The conditions noted are these: ATPase catalytic activity, ADP-Glo, 30 nM BRG-1, 400 μM ATP; for IC50: read-out: BRG1 IC50 (μM)*; for Emax: read-out: BRG1 Max % Inhibition. In short, it runs like this: (§1)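 Luminescence from ADP formed by BRM or BRG-1 ATPase was detected after a two-step ADP-Glo workup at room temperature. The first step, removing unconsumed ATP, took 40 min; the second, converting ADP to ATP for luciferase, took 60 min.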
BRG-1, sequence (P51532 whole entry): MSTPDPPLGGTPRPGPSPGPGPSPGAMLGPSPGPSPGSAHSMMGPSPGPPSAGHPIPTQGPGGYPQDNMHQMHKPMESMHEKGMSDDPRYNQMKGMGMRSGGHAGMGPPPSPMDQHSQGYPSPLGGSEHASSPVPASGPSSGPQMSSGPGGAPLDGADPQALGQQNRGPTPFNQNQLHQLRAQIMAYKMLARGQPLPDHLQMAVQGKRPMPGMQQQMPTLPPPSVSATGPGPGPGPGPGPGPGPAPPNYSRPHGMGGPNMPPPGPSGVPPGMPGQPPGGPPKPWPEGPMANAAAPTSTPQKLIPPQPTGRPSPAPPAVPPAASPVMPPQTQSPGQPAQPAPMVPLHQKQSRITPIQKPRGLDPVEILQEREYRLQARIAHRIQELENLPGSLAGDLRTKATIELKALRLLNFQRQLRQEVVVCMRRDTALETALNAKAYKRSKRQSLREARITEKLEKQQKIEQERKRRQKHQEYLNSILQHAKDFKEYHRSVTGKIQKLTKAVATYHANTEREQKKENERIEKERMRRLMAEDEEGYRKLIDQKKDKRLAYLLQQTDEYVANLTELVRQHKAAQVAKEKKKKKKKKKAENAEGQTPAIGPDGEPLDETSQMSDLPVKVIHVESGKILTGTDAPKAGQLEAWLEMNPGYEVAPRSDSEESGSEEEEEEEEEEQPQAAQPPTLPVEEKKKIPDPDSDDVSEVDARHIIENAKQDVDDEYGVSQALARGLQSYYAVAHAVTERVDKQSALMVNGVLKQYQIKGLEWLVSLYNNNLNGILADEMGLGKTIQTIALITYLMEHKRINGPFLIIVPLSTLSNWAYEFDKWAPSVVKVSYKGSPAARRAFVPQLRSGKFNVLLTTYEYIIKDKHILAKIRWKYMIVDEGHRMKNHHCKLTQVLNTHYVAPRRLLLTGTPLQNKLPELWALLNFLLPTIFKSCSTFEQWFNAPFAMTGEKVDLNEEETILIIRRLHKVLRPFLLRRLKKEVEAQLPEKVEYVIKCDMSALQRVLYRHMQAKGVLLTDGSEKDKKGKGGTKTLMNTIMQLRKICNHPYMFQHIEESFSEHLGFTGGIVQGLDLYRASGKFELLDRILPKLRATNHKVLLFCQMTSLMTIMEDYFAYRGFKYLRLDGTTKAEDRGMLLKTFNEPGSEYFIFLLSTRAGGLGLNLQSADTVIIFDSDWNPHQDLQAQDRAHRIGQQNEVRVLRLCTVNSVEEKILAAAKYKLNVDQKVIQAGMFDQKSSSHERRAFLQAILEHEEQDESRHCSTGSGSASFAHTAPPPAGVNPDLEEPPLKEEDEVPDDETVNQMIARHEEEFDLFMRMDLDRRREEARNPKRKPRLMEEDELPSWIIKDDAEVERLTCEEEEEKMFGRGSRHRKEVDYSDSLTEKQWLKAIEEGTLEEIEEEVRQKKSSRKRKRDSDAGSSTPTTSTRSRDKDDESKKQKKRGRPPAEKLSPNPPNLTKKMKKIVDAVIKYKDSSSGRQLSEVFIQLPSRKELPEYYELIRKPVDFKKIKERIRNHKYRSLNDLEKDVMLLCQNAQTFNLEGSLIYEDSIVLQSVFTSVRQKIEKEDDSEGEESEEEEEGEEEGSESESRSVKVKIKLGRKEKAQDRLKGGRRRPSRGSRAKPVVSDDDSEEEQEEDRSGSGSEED
In general terms: ADP-Glo first removes unused ATP, then detects ADP through luciferase.

For a further test, the target named is BRM (Homo sapiens, UniProt P51531). Put plainly: ATPase catalytic activity assay of BRM (ADP-Glo). As to conditions: 30 nM BRM, 400 μM ATP; for IC50: read-out: BRM IC50 (μM)*. It counts as biochemical. In short, it runs like this:
as §1

Test [1] relates to Uveal melanoma cell lines, 92-1 or MP41. In words: Comparison of BRG1/BRM inhibitor to clinical PKC and MEK inhibitors, cell growth (Cell-titer glo, 3 days). It counts as cell-based. As to conditions: 92-1 or MP41 cells, versus LXS196 and Selumetinib. As to the method: Procedure: Uveal melanoma cell lines, 92-1 or MP41, were plated in 96 well plates in the presence of growth media (See Table 6). […] Cells were incubated at 37 degrees Celsius for 3 days. After three days of treatment, cell growth was measured with Cell-titer glow (Promega), and luminescence was read on an Envision plate reader (Perkin Elmer).

BRM, sequence (P51531 whole entry): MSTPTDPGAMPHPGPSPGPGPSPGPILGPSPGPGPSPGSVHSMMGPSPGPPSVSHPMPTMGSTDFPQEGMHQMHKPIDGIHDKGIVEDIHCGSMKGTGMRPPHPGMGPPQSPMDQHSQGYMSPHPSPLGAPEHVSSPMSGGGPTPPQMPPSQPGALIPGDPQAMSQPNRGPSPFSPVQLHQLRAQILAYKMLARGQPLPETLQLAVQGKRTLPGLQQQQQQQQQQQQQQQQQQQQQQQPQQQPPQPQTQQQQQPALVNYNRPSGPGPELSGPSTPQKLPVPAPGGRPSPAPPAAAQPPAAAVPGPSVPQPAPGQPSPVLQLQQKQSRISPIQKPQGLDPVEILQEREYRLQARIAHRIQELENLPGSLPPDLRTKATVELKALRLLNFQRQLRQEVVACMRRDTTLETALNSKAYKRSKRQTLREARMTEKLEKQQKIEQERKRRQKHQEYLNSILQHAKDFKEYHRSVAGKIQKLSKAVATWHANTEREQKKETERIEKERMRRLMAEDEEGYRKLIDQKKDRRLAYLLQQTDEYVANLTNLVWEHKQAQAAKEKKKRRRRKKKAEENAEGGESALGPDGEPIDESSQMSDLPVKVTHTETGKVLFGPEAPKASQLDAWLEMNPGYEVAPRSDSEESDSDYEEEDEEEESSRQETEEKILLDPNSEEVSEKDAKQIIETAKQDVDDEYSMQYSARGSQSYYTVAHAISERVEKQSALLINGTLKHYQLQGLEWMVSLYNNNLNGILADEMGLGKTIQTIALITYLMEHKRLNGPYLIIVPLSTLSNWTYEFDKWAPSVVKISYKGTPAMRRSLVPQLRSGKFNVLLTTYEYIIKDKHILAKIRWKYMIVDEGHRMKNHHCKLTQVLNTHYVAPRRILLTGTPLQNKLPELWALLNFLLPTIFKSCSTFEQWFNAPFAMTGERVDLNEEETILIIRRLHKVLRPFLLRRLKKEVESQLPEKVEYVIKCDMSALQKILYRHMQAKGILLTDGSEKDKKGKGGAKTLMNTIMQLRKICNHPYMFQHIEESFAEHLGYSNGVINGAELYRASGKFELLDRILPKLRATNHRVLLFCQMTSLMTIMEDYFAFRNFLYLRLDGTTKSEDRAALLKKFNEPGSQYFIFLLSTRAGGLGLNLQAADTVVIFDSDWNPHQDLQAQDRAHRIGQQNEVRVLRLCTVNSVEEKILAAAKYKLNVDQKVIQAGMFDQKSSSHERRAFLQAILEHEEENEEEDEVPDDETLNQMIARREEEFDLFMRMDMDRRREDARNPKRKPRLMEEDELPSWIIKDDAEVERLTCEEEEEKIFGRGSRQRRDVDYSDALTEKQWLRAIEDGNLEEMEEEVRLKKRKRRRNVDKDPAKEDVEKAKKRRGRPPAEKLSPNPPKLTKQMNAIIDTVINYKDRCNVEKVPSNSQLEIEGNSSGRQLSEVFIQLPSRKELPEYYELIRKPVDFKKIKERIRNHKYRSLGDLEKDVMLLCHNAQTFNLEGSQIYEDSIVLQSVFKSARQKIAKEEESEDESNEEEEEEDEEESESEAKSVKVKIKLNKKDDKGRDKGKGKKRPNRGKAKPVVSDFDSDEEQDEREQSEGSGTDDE

The term IC50 denotes the point on the concentration scale where inhibition reaches its midpoint. With `C[C@@H]1CN(c2cccc(-c3csc(NC(=O)CNC(=O)c4cncc(C(C)(C)C)c4)n3)c2)C[C@H](C)O1` [Compound 443, 5-(tert-butyl)-N-(2-((4-(3-((cis)-2,6-dimethylmorpholino)phenyl)thiazol-2-yl)amino)-2-oxoethyl)nicotinamide], on BRG-1, the IC50 lay within 0.1 to 1 µM and the Emax is above 95%. For the same molecule, on BRM, the “BRM Max % Inhibition” value is listed as above 95% and the IC50 is below 0.1 µM.

`C[C@@H]1CN(c2cccc(-c3csc(NC(=O)CNC(=O)c4ccc5c(c4)C(C#N)(CO)CCO5)n3)c2)C[C@H](C)O1` (stereo partly drawn) [Compound 444, 4-cyano-N-(2-((4-(3-((cis)-2,6-dimethylmorpholino)phenyl)thiazol-2-yl)amino)-2-oxoethyl)-4-(hydroxymethyl)chromane-6-carboxamide]: on BRG-1, the IC50 fell in the range of 0.1 to 1 µM and the Emax was above 95%. In addition, at BRM, the “BRM Max % Inhibition” value is reported as above 95% and the IC50 is below 0.1 µM.

Turning to `CSCC[C@H](NC(=O)c1ccc(N)cc1)C(=O)Nc1nc(-c2cccc(-c3ccncc3)c2)cs1` [Compound A], the “growth inhibition of uveal melanoma cells compared with the clinical PKC and MEK inhibitors” value in test [1] (0 to 10 micromolar, 3 days, FIGS. 2A and 2B) is on record as “comparable growth inhibition”. For the same molecule, the “onset of inhibition compared with the clinical PKC and MEK inhibitors” value in test [1] is “faster onset of inhibition”.
